Source: ChEMBL document CHEMBL3991601, “The target landscape of clinical kinase drugs” (Science, 2017)
Active and inactive are the calls of the source. Rule as the data show it, for most assays here: actives have a measured Kd and inactives only a lower limit.

Legend:
Aurora kinase A = molecular target: T1, Aurora kinase A (Homo sapiens, UniProt O14965)
T1 sequence (O14965 whole entry): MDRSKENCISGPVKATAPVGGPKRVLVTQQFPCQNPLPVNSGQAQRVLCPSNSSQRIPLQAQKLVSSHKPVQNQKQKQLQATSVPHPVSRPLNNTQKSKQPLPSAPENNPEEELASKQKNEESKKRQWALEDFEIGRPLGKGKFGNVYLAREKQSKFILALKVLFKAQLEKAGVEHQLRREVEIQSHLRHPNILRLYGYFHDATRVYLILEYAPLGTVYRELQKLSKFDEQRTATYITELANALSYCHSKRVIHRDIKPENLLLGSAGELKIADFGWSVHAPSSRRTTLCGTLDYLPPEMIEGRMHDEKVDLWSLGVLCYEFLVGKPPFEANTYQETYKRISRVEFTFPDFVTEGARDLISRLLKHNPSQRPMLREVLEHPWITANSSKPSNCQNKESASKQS

[1] = molecular target: Serine/threonine-protein kinase MRCK beta (Homo sapiens, UniProt Q9Y5S2)
[2] = molecular target: Fibroblast growth factor receptor 1 (Homo sapiens, UniProt P11362)
[3] = molecular target: Putative heat shock protein HSP 90-beta 2 (Homo sapiens, UniProt Q58FF8)
[4] = molecular target: Interleukin-1 receptor-associated kinase 1 (Homo sapiens, UniProt P51617)
[5] = molecular target: T2, Interleukin-1 receptor-associated kinase 4 (Homo sapiens, UniProt Q9NWZ3)
T2 sequence (Q9NWZ3 whole entry): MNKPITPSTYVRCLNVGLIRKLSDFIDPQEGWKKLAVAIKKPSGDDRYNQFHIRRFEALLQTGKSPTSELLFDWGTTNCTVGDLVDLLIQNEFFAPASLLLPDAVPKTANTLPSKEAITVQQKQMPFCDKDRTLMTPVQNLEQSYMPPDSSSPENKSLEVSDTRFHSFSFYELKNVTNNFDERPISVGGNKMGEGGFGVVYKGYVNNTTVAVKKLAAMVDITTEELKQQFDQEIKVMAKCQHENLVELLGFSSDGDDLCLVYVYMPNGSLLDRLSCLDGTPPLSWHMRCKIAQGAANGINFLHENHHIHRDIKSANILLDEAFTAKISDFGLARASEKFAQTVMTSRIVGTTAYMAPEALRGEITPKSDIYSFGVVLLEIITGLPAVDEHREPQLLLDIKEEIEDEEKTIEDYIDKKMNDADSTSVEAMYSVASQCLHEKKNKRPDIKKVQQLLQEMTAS

LIM domain kinase 1 = LIM domain kinase 1 (Homo sapiens, UniProt P53667)
[6] = molecular target: Dual specificity mitogen-activated protein kinase kinase 2 (Homo sapiens, UniProt P36507)
[7] = molecular target: Mitogen-activated protein kinase 11 (Homo sapiens, UniProt Q15759)
[8] = molecular target: T3, Serine/threonine-protein kinase Nek3 (Homo sapiens, UniProt P51956)
T3 sequence (P51956 whole entry): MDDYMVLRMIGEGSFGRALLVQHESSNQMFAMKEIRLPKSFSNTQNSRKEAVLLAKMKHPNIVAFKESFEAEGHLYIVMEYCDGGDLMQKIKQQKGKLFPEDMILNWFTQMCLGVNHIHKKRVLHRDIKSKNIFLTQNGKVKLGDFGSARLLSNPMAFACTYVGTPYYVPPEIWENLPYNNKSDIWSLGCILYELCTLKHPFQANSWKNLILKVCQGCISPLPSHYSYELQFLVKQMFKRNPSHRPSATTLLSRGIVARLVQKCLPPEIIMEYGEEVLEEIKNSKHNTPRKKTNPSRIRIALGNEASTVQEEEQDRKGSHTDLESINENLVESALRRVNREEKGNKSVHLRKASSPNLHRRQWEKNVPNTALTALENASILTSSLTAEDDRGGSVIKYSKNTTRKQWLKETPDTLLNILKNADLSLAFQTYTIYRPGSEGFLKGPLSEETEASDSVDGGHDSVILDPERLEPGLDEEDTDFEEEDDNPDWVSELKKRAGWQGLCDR

[9] = molecular target: T4, Bifunctional phosphoribosylaminoimidazole carboxylase/phosphoribosylaminoimidazole succinocarboxamide synthetase (Homo sapiens, UniProt P22234)
T4 sequence (P22234 whole entry): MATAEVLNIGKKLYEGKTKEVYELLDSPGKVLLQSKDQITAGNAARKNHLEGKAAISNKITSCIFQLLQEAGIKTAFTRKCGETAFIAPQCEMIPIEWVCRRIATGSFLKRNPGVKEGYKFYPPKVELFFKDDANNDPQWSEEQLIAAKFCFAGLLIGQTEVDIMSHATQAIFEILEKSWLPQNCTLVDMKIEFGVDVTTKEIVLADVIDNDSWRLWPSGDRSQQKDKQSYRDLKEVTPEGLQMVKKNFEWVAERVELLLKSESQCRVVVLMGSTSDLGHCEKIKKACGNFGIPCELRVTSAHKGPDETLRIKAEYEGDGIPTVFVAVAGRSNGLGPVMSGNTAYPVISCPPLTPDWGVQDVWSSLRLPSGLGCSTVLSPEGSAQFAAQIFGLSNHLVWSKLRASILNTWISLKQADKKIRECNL

[10] = molecular target: T5, Ras-related protein Rab-27A (Homo sapiens, UniProt P51159)
T5 sequence (P51159 whole entry): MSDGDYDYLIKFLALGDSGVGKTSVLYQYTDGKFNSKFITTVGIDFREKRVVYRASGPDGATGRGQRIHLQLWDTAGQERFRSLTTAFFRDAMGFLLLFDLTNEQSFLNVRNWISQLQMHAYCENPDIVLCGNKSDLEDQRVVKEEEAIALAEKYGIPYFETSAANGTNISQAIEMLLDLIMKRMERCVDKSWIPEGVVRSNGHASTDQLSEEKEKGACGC

[11] = molecular target: Proto-oncogene tyrosine-protein kinase Src (Homo sapiens, UniProt P12931)
[12] = molecular target: Tyrosine-protein kinase Yes (Homo sapiens, UniProt P07947)

Measured: Kd
Also: in the data inactive means no Kd found up to 30 µM.

Chain of Dual specificity mitogen-activated protein kinase kinase 2 (P36507 whole entry): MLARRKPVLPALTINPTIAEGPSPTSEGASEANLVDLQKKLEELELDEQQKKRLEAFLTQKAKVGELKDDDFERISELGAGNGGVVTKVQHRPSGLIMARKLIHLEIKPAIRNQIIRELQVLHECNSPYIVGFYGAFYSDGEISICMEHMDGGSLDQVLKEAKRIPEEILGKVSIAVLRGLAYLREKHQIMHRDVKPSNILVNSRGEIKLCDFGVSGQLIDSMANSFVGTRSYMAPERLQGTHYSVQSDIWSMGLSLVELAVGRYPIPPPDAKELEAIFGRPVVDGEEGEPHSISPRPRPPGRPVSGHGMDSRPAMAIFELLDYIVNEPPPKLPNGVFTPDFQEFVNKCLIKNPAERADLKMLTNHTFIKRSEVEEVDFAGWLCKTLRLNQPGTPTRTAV
Chain of Proto-oncogene tyrosine-protein kinase Src (P12931 2-536 limits assumed): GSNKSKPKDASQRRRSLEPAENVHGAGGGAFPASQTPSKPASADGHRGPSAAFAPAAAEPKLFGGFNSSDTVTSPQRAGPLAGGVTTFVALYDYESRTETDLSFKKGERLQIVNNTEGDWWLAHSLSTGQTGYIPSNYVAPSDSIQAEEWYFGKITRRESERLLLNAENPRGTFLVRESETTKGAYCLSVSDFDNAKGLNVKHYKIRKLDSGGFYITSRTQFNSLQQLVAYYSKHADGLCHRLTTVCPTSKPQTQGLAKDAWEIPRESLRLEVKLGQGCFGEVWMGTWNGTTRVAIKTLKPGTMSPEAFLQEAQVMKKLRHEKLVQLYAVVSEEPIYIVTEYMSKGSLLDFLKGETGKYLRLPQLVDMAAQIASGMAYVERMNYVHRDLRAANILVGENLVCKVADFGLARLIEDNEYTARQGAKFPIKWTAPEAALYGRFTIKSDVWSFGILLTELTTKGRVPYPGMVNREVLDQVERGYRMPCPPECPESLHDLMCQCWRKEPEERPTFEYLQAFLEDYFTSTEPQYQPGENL
Chain of Mitogen-activated protein kinase 11 (Q15759 whole entry): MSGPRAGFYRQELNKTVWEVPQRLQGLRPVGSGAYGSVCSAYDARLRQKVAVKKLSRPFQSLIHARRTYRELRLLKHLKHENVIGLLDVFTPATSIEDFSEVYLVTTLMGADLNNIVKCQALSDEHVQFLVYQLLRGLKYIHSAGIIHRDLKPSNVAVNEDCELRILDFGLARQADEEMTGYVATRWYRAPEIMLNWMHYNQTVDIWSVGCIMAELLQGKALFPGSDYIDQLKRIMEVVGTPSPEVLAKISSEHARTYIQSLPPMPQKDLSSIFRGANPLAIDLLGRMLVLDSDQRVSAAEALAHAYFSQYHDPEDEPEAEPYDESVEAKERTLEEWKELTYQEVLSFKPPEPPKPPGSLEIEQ
Chain of Fibroblast growth factor receptor 1 (P11362 whole entry): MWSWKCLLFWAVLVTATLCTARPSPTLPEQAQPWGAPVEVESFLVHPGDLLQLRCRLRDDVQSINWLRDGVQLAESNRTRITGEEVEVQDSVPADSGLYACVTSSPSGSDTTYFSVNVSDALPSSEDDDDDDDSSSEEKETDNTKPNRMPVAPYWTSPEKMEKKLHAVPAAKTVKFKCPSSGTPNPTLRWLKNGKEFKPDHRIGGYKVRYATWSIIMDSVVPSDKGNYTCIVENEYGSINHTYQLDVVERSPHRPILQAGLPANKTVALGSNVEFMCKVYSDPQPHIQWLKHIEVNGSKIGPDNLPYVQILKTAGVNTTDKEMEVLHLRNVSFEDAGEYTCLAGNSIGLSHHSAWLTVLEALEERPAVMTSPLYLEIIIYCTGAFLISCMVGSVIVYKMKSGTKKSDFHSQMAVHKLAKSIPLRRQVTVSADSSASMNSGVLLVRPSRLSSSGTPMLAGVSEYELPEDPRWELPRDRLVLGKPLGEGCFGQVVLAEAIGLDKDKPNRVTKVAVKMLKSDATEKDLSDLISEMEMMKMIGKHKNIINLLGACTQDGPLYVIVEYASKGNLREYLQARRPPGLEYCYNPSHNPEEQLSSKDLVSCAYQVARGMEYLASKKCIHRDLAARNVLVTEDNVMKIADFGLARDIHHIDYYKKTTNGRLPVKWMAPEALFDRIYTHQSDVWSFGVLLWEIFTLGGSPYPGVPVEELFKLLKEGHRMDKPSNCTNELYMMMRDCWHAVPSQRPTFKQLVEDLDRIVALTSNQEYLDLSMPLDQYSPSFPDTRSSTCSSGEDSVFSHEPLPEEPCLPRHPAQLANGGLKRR
Chain of LIM domain kinase 1 (P53667 whole entry, the tested form may be a part): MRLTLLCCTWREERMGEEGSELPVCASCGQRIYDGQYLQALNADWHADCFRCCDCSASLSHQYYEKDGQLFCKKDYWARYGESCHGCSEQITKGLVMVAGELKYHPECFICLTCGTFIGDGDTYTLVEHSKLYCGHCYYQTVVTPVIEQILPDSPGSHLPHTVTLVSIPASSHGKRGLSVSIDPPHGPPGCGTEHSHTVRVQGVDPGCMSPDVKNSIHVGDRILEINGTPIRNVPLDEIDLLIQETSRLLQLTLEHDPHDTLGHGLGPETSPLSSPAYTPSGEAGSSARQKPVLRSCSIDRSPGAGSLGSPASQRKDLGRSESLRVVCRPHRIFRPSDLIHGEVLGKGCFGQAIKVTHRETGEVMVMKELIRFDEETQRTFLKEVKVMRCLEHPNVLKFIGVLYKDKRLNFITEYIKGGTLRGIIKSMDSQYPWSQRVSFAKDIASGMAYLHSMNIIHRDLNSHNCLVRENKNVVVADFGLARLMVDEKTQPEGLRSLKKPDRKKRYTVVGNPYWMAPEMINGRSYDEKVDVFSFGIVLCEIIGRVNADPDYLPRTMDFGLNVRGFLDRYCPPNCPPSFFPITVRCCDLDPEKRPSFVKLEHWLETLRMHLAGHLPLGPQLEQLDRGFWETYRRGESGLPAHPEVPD
Chain of Interleukin-1 receptor-associated kinase 1 (P51617 whole entry): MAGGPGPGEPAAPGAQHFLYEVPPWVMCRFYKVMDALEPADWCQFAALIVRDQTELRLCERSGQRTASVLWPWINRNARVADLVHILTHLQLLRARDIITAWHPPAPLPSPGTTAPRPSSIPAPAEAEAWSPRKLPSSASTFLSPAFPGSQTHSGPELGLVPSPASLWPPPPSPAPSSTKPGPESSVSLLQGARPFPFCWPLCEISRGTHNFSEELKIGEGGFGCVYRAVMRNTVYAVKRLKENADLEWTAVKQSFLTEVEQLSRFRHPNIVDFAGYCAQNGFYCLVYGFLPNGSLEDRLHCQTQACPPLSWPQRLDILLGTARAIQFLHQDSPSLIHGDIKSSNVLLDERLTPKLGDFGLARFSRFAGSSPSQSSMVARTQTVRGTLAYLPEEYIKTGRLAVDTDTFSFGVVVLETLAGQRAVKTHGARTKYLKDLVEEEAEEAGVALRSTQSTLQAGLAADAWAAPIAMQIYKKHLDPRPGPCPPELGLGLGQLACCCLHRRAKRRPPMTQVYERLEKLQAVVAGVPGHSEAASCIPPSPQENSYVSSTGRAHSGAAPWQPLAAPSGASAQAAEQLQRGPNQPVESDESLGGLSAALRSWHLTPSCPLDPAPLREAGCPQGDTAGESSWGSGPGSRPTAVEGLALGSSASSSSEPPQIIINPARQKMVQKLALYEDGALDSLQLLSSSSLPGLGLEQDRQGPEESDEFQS
Chain of Putative heat shock protein HSP 90-beta 2 (Q58FF8 whole entry): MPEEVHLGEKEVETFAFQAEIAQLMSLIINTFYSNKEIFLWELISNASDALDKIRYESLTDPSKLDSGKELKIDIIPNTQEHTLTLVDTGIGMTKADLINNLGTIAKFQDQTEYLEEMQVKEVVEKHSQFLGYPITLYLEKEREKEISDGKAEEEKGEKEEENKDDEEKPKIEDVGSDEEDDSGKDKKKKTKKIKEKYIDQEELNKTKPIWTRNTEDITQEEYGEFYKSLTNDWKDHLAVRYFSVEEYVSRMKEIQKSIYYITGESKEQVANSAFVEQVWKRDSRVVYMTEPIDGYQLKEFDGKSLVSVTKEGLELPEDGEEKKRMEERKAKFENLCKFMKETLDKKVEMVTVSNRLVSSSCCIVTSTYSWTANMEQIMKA
Chain of Tyrosine-protein kinase Yes (P07947 whole entry): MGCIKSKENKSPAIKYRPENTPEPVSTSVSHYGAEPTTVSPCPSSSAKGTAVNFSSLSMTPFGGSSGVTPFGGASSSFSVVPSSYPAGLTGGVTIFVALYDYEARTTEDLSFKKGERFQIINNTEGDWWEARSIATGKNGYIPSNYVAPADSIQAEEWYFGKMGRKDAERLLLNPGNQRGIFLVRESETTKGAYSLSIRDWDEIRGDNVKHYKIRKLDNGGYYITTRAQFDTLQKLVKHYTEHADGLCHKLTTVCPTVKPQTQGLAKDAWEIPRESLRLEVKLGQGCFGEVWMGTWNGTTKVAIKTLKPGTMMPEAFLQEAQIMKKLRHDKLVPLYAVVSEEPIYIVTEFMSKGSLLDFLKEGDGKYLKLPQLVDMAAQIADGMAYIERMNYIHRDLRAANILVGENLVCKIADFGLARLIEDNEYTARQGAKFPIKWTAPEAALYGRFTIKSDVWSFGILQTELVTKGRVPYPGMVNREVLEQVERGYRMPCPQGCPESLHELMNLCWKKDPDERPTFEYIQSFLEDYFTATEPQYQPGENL

C=CC(=O)N1CCC[C@H](n2c(=O)n(-c3ccc(Oc4ccccc4)cc3)c3c(N)ncnc32)C1
0.005 µM: [12]
inactive: Aurora kinase A > 30 µM | [1] > 30 µM | [2] > 30 µM | [3] > 30 µM | [4] > 30 µM | [5] > 30 µM | LIM domain kinase 1 > 30 µM | [6] > 30 µM | [7] > 30 µM | [8] > 30 µM | [9] > 30 µM | [10] > 30 µM
0.004 µM: [11]

COCc1c(-c2ccc(NC(=O)Nc3cc(C(F)(F)F)ccc3F)c(F)c2)c2c(N)ncnn2c1CN1CCOCC1
active: [2] 0.04 µM
inactive: Aurora kinase A > 30 µM | [1] > 30 µM | [3] > 30 µM | [4] > 30 µM | [5] > 30 µM | LIM domain kinase 1 > 30 µM | [6] > 30 µM | [7] > 30 µM | [8] > 30 µM | [9] > 30 µM | [10] > 30 µM | [11] > 30 µM | [12] > 30 µM

Cc1nc(NC(=O)N2CCC[C@H]2C(N)=O)sc1-c1ccnc(C(C)(C)C(F)(F)F)c1 [ALPELISIB]
inactive: Aurora kinase A > 30 µM | [1] > 30 µM | [2] > 30 µM | [3] > 30 µM | [4] > 30 µM | [5] > 30 µM | LIM domain kinase 1 > 30 µM | [6] > 30 µM | [8] > 30 µM | [9] > 30 µM | [11] > 30 µM | [12] > 30 µM

NC(=O)Nc1cc(-c2cccc(F)c2)sc1C(=O)N[C@H]1CCCNC1 [AZD-7762]
inactive: Aurora kinase A > 30 µM | [1] > 30 µM | [2] > 30 µM | [3] > 30 µM | [4] > 30 µM | LIM domain kinase 1 > 30 µM | [7] > 30 µM | [8] > 30 µM | [9] > 30 µM | [10] > 30 µM
active: [6] 1.22 µM | [11] 0.109 µM

Cc1cc(C(=O)NOCCO)c(Nc2ccc(I)cc2F)n(C)c1=O [AZD-8330]
inactive: Aurora kinase A > 30 µM | [1] > 30 µM | [2] > 30 µM | [3] > 30 µM | [4] > 30 µM | [5] > 30 µM | LIM domain kinase 1 > 30 µM | [8] > 30 µM | [9] > 30 µM | [10] > 30 µM | [11] > 30 µM | [12] > 30 µM

CC(C)(C)c1nc(-c2cccc(NS(=O)(=O)c3c(F)cccc3F)c2F)c(-c2ccnc(N)n2)s1 [DABRAFENIB]
active: LIM domain kinase 1 0.033 µM
inactive: Aurora kinase A > 30 µM | [1] > 30 µM | [2] > 30 µM | [3] > 30 µM | [5] > 30 µM | [7] > 30 µM | [8] > 30 µM | [9] > 30 µM | [10] > 30 µM | [11] > 30 µM
1.28 µM: [12]

Cc1nc2cc(-n3ncc(C(=O)c4cc5ccccc5[nH]4)c3N)ccc2[nH]1 [FGFR INHIBITOR DEBIO 1347]
inactive: Aurora kinase A > 30 µM | [1] > 30 µM | [3] > 30 µM | [4] > 30 µM | [5] > 30 µM | LIM domain kinase 1 > 30 µM | [6] > 30 µM | [7] > 30 µM | [8] > 30 µM | [9] > 30 µM | [10] > 30 µM | [11] > 30 µM | [12] > 30 µM

O=C(Nc1cc(C(F)(F)F)cc(C(F)(F)F)c1)c1cc(Cl)ccc1O [IMD-0354]
inactive: Aurora kinase A > 30 µM | [1] > 30 µM | [2] > 30 µM | [3] > 30 µM | [4] > 30 µM | [6] > 30 µM | [7] > 30 µM | [8] > 30 µM | [9] > 30 µM | [10] > 30 µM | [11] > 30 µM | [12] > 30 µM

CNC(=O)c1nn(C)c2c1C(C)(C)Cc1cnc(Nc3ccc(N4CCN(C)CC4)cc3)nc1-2 [MILCICLIB]
active: [2] 1.42 µM | [4] 2.06 µM | [5] 26.1 µM | [11] 5.31 µM | [12] 3.79 µM
inactive: Aurora kinase A > 30 µM | [1] > 30 µM | [3] > 30 µM | LIM domain kinase 1 > 30 µM | [6] > 30 µM | [7] > 30 µM | [9] > 30 µM | [10] > 30 µM

CCOc1cc2ncc(C#N)c(Nc3ccc(F)c(Cl)c3)c2cc1NC(=O)/C=C/CN(C)C [PELITINIB]
inactive: Aurora kinase A > 30 µM | [1] > 30 µM | [2] > 30 µM | [4] > 30 µM | [5] > 30 µM | LIM domain kinase 1 > 30 µM | [7] > 30 µM | [8] > 30 µM | [9] > 30 µM | [10] > 30 µM | [11] > 30 µM | [12] > 30 µM

CO[C@H]1C[C@@H]2CC[C@@H](C)[C@@](O)(O2)C(=O)C(=O)N2CCCC[C@H]2C(=O)O[C@H]([C@H](C)C[C@@H]2CC[C@@H](OP(C)(C)=O)[C@H](OC)C2)CC(=O)[C@H](C)/C=C(\C)[C@@H](O)[C@@H](OC)C(=O)[C@H](C)C[C@H](C)/C=C/C=C/C=C/1C [RIDAFOROLIMUS]
inactive: Aurora kinase A > 30 µM | [1] > 30 µM | [2] > 30 µM | [4] > 30 µM | [5] > 30 µM | LIM domain kinase 1 > 30 µM | [6] > 30 µM | [7] > 30 µM | [8] > 30 µM | [9] > 30 µM | [10] > 30 µM | [11] > 30 µM | [12] > 30 µM

CN1CCN(CCOc2cc(OC3CCOCC3)c3c(Nc4c(Cl)ccc5c4OCO5)ncnc3c2)CC1 [SARACATINIB]
inactive: Aurora kinase A > 30 µM | [1] > 30 µM | [2] > 30 µM | [3] > 30 µM | [4] > 30 µM | [5] > 30 µM | LIM domain kinase 1 > 30 µM | [6] > 30 µM | [7] > 30 µM | [8] > 30 µM | [9] > 30 µM | [10] > 30 µM
